According to patent US6685851B2, “Derivatives of cycloaliphatic diamines as cosolvents for aqueous hydrophobic amines” (PRC-DeSoto International, Inc., priority 1999, dated 2004):

Tests used:
Assay type in all cases: physicochemical
[1] = Water added dropwise to 1:1 hydrophobic amine/cosolvent amine blend until turbidity (visible light scattering)
Experimental: To illustrate the efficiency of the present invention to solubilize various hydrophobic amines, one part by weight of various commercially available hydrophobic amines is blended with one part by weight of a cosolvent amine. Water is then added dropwise with vigorous stirring to the blend of one part hydrophobic amine and one part cosolvent amine. The parts of water added is monitored by the appearance of turbidity as measured by visible light scattering. […] Cosolvents amines A-D are those of the present invention. In order to assess the relative efficiency of the cosolvent amines of the present invention, A-D; conventional cosolvent amines, E-I and the omission of a cosolvent, J are also evaluated.

[2] = Aqueous solution of polyamidoamine with cosolvent amine, appearance and stability (Example 1); settings: 10 parts polyamidoamine, 10 parts cosolvent, 150 parts room temperature water
Experimental: 10 parts of a polyamidoamine (Air Products 506 amidoamine) is added to a reactor equipped with a mechanical agitator.

bacteriorhodopsin = target: T1, bacteriorhodopsin (Halobacterium salinarum, UniProt P02945); experiment: Dispersion of bacteriorhodopsin in aqueous cosolvent by small angle x-ray scattering (Example 3); settings: 0.1 gram bacteriorhodopsin, 0.1 grams cosolvent, 1.1 grams water
T1 construct: A lyophilized powder of bacteriorhodopsin is obtained according to D. Oesterhett Mtds; Enzy 31, 1974, 667; made in house; host or cells: Isolated from the natural producer (Halobacterium) by the cited literature method
T1 sequence (P02945 14-262): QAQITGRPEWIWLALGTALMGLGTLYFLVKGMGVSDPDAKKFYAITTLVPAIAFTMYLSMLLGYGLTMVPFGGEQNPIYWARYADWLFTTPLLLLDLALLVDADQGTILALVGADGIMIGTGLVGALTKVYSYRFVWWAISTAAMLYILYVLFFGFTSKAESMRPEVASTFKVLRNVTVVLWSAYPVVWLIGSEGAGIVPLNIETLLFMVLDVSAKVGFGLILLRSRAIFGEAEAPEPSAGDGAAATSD
From the text: A lyophilized powder of bacteriorhodopsin is obtained according to D. Oesterhett Mtds. Enzy 31, 1974, 667. 0.1 gram of bacteriorhodopsin is mixed with 0.1 grams of 1,2 diaminocycylohexane cosolvent and 1.1 grams of water added.

[3] = 1 part Air Products 506 Amidoamine + 1 part cosolvent amine by weight
[4] = 1 part Air Products 2460 Polyamide + 1 part cosolvent amine by weight
[5] = 1 part Cardolite NC-540 Phenalkamine + 1 part cosolvent amine by weight

Row | SMILES | Parts of water added to 2 parts of amine blend yielding a clear solution [1, 3] [parts] | Parts of water added to 2 parts of amine blend yielding a clear solution [1, 4] [parts] | Parts of water added to 2 parts of amine blend yielding a clear solution [1, 5] | Appearance of aqueous solution [2] | Stability of the solution [2] | Dispersion of bacteriorhodopsin in the aqueous cosolvent (bacteriorhodopsin)
1 | CC1(C)CC(N)CC(C)(CN)C1 (stereo not drawn) [Cosolvent A, Isophorone diamine] | >28 | >22 | >30 parts | – | – | –
2 | NCC1CCCC(CN)C1 (stereo not drawn) [Cosolvent B, 1,3-Bis (aminomethyl) cyclohexane] | >19 | >10 | >18 parts | uniform, clear solution is formed | stable for greater than three months | –
3 | NC1CCCCC1N (stereo not drawn) [Cosolvent C, 1,2-Diamino cyclohexane] | – | – | – | – | – | uniformly dispersed
4 | NC1CCCC1N (stereo not drawn) [Cosolvent D, 1,2 Diaminocyclopentane] | <5 | <5 | <3.5 parts | – | – | –
5 | NCc1cccc(CN)c1 [Cosolvent I, m-Xylylenediamine, reference compound] | <5 | <3.75 | <.5 parts | – | – | –

The next lines start with results.

Row | Parts of water added to 2 parts of amine blend yielding a clear solution [1, 3] [parts] | Parts of water added to 2 parts of amine blend yielding a clear solution [1, 4] [parts] | Parts of water added to 2 parts of amine blend yielding a clear solution [1, 5] | Appearance of aqueous solution [2] | Stability of the solution [2] | SMILES | Dispersion of bacteriorhodopsin in the aqueous cosolvent (bacteriorhodopsin)
6 | <6 | 3.5 | <3.9 parts | – | – | CC(CN)CCCN (stereo not drawn) [Cosolvent E] | –
7 | <4 | <2 | <.5 parts | – | – | NCCCN1CCN(CCCN)CC1 [Cosolvent F, 1,4-Bis (3-aminopropyl) piperazine, reference compound] | –
8 | <2 | <2 | <.5 parts | – | – | NCCOCCOCCN [Cosolvent G] | –
9 | <7 | <3.6 | <3 parts | – | – | CCCCC(N)CN (stereo not drawn) [Cosolvent H, 1,2-Hexanediamine, reference compound] | –
